Test systems include A549 NSCLC; EKVX NSCLC; HL-60(TB) leukemia; HOP-62 NSCLC; LOX IMVI melanoma; SK-MEL-5 melanoma; SNB-75 CNS; UO-31 renal; XF 498 CNS; SK-MEL-2 melanoma.
Common to all, as to experiment: NCI tumour cell line growth inhibition, 48 h

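1) Cells in 96-well plates. 2) Compound, 48 h, 5 concentrations. 3) Linear interpolation between surrounding doses. 4) Unreached endpoint = highest concentration. GI50 is the concentration that inhibits growth by half. TGI marks complete inhibition of growth.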 Where only a bound is given, the exact number is not on record here.

On to `CSc1nc2c(nc(N)n2C2OCC(O)C(O)C2O)c(=O)n1C` (stereo not given), for which the TGI in the experiment with A549 NSCLC, in the experiment on EKVX NSCLC, in the experiment on HL-60(TB) leukemia, with HOP-62 NSCLC, in the experiment on LOX IMVI melanoma and in the experiment on SK-MEL-5 melanoma was greater than 100 µM in each case. The TGI in the experiment with SNB-75 CNS, in the experiment on UO-31 renal and with XF 498 CNS was greater than 100 µM throughout.
Take `Cn1nc(-c2ccccc2)c(C(=O)/C=C/c2ccccc2)c(N2CCOCC2)c1=O`: the TGI is greater than 100 µM in the experiment with A549 NSCLC; 32.3 µM in the experiment with HL-60(TB) leukemia; greater than 100 µM in the experiment on HOP-62 NSCLC; 60.5 µM in the experiment on LOX IMVI melanoma; 37.6 µM in the experiment with SK-MEL-5 melanoma; 28.1 µM in the experiment on UO-31 renal. In addition, in the experiment on XF 498 CNS, the TGI turned out to be 30.7 µM.
Regarding `CCOC(=O)C(=O)Nc1c(C)cccc1C`, the TGI in the experiment with A549 NSCLC, in the experiment on EKVX NSCLC, in the experiment with HOP-62 NSCLC, in the experiment on LOX IMVI melanoma, in the experiment on SK-MEL-2 melanoma and with SNB-75 CNS was greater than 100 µM each time. In addition, the TGI in the experiment on UO-31 renal and in the experiment with XF 498 CNS was greater than 100 µM throughout.
As for `COc1nc2nccc-2c2occn12`, the TGI in the experiment on A549 NSCLC, in the experiment with EKVX NSCLC, in the experiment with HOP-62 NSCLC, in the experiment on LOX IMVI melanoma, with SK-MEL-2 melanoma and in the experiment with SK-MEL-5 melanoma was greater than 100 µM each time. Further, the TGI with SNB-75 CNS, with UO-31 renal and in the experiment on XF 498 CNS was greater than 100 µM throughout.
Consider `NC(=O)N1N=C2c3ccccc3SC[C@H]2[C@@H]1c1ccccc1`, for which the TGI is greater than 100 µM with A549 NSCLC; greater than 100 µM in the experiment with EKVX NSCLC; 55 µM with HL-60(TB) leukemia; 65.6 µM with HOP-62 NSCLC; 32.4 µM in the experiment with LOX IMVI melanoma; 21.8 µM with SK-MEL-5 melanoma. Also, the TGI was 82.9 µM in the experiment with UO-31 renal and 56.8 µM with XF 498 CNS.
Consider `O=C1C2=C(c3ccccc31)C(c1ccccc1)NC(=S)N2` (stereo not given), for which the TGI in the experiment with A549 NSCLC is greater than 100 µM; in the experiment on EKVX NSCLC, greater than 100 µM; in the experiment with HL-60(TB) leukemia, 39.6 µM; in the experiment with HOP-62 NSCLC it was greater than 100 µM; with SK-MEL-2 melanoma, greater than 100 µM; in the experiment on SK-MEL-5 melanoma, greater than 100 µM. The TGI was 80 µM with SNB-75 CNS, greater than 100 µM in the experiment with UO-31 renal and greater than 100 µM in the experiment on XF 498 CNS.
`COc1cc(CNc2ccc(C(C)C)cc2)cc(OC)c1OC`: the TGI is 34.2 µM in the experiment with A549 NSCLC; greater than 100 µM in the experiment on EKVX NSCLC; 55.1 µM with HOP-62 NSCLC; 29.9 µM in the experiment on LOX IMVI melanoma; 32.9 µM with SK-MEL-2 melanoma; 27.9 µM in the experiment on SK-MEL-5 melanoma. Further, the TGI is 70.5 µM in the experiment with SNB-75 CNS, 45.3 µM in the experiment on UO-31 renal and 59 µM with XF 498 CNS.
In the case of `COc1cccc(C(=O)C2C(=O)N(C)CCc3ccccc32)c1OC` (stereo not given), the TGI with A549 NSCLC, with HL-60(TB) leukemia, in the experiment on HOP-62 NSCLC, in the experiment on LOX IMVI melanoma, in the experiment with SK-MEL-2 melanoma and in the experiment with SK-MEL-5 melanoma was greater than 100 µM each time. For the same molecule, the TGI in the experiment on SNB-75 CNS, in the experiment with UO-31 renal and with XF 498 CNS was greater than 100 µM throughout.
As for `CN(C)C(=S)N=Nc1c(O)[nH]c2ccccc12`, the GI50 in the experiment on A549 NSCLC was 0.465 µM; with EKVX NSCLC, 0.397 µM; in the experiment with HL-60(TB) leukemia, 1.32 µM; with HOP-62 NSCLC, 0.708 µM; in the experiment on LOX IMVI melanoma, 0.46 µM; in the experiment on SK-MEL-2 melanoma, 0.8 µM. For the same molecule, the GI50 in the experiment with SK-MEL-5 melanoma was 0.626 µM; in the experiment with SNB-75 CNS it was 3.01 µM; in the experiment with UO-31 renal it was 0.384 µM. In addition, the TGI was 18.8 µM in the experiment on A549 NSCLC; 11 µM with EKVX NSCLC; 7.24 µM in the experiment with HL-60(TB) leukemia; 14.7 µM in the experiment on HOP-62 NSCLC; 13.5 µM in the experiment on LOX IMVI melanoma; 19.8 µM in the experiment on SK-MEL-2 melanoma. In addition, the TGI with SK-MEL-5 melanoma is 12.5 µM; in the experiment on SNB-75 CNS, 18.5 µM; with UO-31 renal, 6.03 µM.
Take `CCC(CC)n1c(C)nc2c1C(=O)c1ccccc1C2=O`: the TGI was greater than 100 µM in the experiment on A549 NSCLC; greater than 100 µM with EKVX NSCLC; greater than 100 µM with HL-60(TB) leukemia; greater than 100 µM in the experiment with HOP-62 NSCLC; 54.7 µM in the experiment with LOX IMVI melanoma; greater than 100 µM in the experiment with SK-MEL-2 melanoma. For the same molecule, the TGI is 37.1 µM in the experiment on SK-MEL-5 melanoma, greater than 100 µM with SNB-75 CNS and greater than 100 µM in the experiment on UO-31 renal.
Consider `Cc1nc2sc(C(=O)Nc3ccccc3)c(N)c2cc1C(=O)/C=C/c1ccccc1`, for which the GI50 was 2.08 µM in the experiment with A549 NSCLC; 2.26 µM with EKVX NSCLC; 2.03 µM in the experiment on HL-60(TB) leukemia; 2.15 µM in the experiment on HOP-62 NSCLC; 1.68 µM with LOX IMVI melanoma; 3.37 µM with SK-MEL-2 melanoma. Moreover, the GI50 in the experiment with SK-MEL-5 melanoma was 2.27 µM; in the experiment with SNB-75 CNS it was 2.18 µM; in the experiment on UO-31 renal it was 1.54 µM. For the same molecule, the TGI came to 4.91 µM in the experiment on A549 NSCLC; 6.48 µM with EKVX NSCLC; 4.83 µM with HL-60(TB) leukemia; 5.13 µM with HOP-62 NSCLC; 3.13 µM with LOX IMVI melanoma; 14.6 µM with SK-MEL-2 melanoma. The figures for the TGI in the experiment on SK-MEL-5 melanoma, in the experiment with SNB-75 CNS and in the experiment on UO-31 renal were 5.98 µM, 6.12 µM and 2.89 µM, respectively.
`CC(C)CC1=[N+]=C(NC#N)N=C(CCC(=O)Nc2ccccc2[N+](=O)[O-])C1`: the TGI with A549 NSCLC, with EKVX NSCLC, in the experiment with HL-60(TB) leukemia, in the experiment with HOP-62 NSCLC, in the experiment with LOX IMVI melanoma and in the experiment on SK-MEL-5 melanoma was greater than 100 µM in each case. Besides, the TGI with SNB-75 CNS, in the experiment with UO-31 renal and with XF 498 CNS was greater than 100 µM in each case.
For `COc1ccc2c(c1)OC(N(C(C)=O)C(C)=O)=C(C#N)C2c1ccc(F)cc1` (stereo not given), the GI50 in the experiment with A549 NSCLC was 4.45 µM; in the experiment on EKVX NSCLC, 6.37 µM; in the experiment with HL-60(TB) leukemia, 0.496 µM; in the experiment with HOP-62 NSCLC, 1.7 µM; in the experiment on LOX IMVI melanoma it was 3.26 µM; in the experiment on SK-MEL-2 melanoma it was 1.08 µM. Further, the GI50 in the experiment on SK-MEL-5 melanoma is 1.98 µM; with SNB-75 CNS, 1.28 µM; with UO-31 renal, 4.19 µM. Further, the TGI in the experiment on A549 NSCLC is greater than 100 µM; in the experiment with EKVX NSCLC, greater than 100 µM; in the experiment with HL-60(TB) leukemia, 2.53 µM; in the experiment on HOP-62 NSCLC, greater than 100 µM; with LOX IMVI melanoma, greater than 100 µM; in the experiment on SK-MEL-2 melanoma, greater than 100 µM. Moreover, the results for the TGI with SK-MEL-5 melanoma, with SNB-75 CNS and in the experiment with UO-31 renal were 18.3 µM, greater than 100 µM and greater than 100 µM, respectively.

The record behind these values is PubChem BioAssay (NCI).
